Measurements reported in US6919344B2, “N-substituted indole-3-glyoxylamides having anti-asthmatic, antiallergic and immunosuppressant/immuno-modulating action” (ASTA MEDICA, Aktiengesellschaft, priority 1996, dated 2005).

How the values were obtained:
[1] = test system: CD3-induced IL-2 production; assay: Inhibition of CD3-induced IL-2 production; type: cell-based
lymphoproliferation = assay: Inhibition of lymphoproliferation (colorimetric MTT assay); type: cell-based
Text: Colorimetric Assay (Based on the MTT Test) for the Non-Radioactive Quantification of Cell Proliferation and Survival Ability
MTT is used for the quantitative determination of cell proliferation and activation, for example, in the reaction on growth factors and cytokines such as IL-2 and IL-4 and also for the quantification of the antiproliferative or toxic effects.
The assay is based on the cleavage of yellow tetrazolium salt MTT to give purple-red formazan crystals by metabolically active cells.
The cells, cultured in a 96-hole tissue culture plate, are incubated for about 4 h with yellow MTT solution. After this incubation time, purple-red formazan salt crystals are formed. These salt crystals are insoluble in aqueous solutions, but can be dissolved by addition of solubilizer and by incubation of the plates overnight.
The dissolved formazan product is quantified spectrophotometrically using an ELISA reader. An increase in the number of living cells results in an increase in the total metabolic activity in the sample. This increase correlates directly with the amount of the purple-red formazan crystals formed, which are [sic] measured by the absorption.

recombinant human Cyp B = recombinant human Cyp B (Homo sapiens, UniProt P23284); assay: Peptidylprolyl isomerase (PPIase) activity inhibition assay; type: biochemical; settings: Cyp B incubated with 1 μM substance for 15 min, 10° C.
Method: Assays for the Determination of Peptidylprolyl Isomerase (PPIase) Activity and Inhibition
The PPIase activity of the cyclophilins was measured enzymatically according to Fischer et al. (1984). After isomerization of the substrate by the peptidyl prolyl isomerase, this is accessible to chymotrypsin, which cleaves the chromophore p-nitroaniline. For the determination of inhibition of the PPIase activity by substance, recombinant human Cyp B was used. The interaction of Cyp B with a potential inhibitor was carried out as follows:
A certain concentration of purified Cyp B was incubated with 1 μM substance for 15 min. The PPIase reaction was started by addition of the substrate solution to the reaction mixture which contains HEPES buffer, chymotrypsin and either test or control samples. Under these conditions, first-order kinetics were obtained with a constant Kobserved=K0+Kenz, where K0 is the spontaneous isomerization and Kenz is the rate of isomerization of the PPIase activity. The extinction values which correspond to the amount of the chromophore cleaved were measured using a Beckman DU 70 spectrophotometer at a constant reaction temperature of 10° C.
The observed residual activity in the presence of various substances was compared with the cyclophilins only treated with solvent. The results were given in % residual activity. Cyclosporin A (CsA) was used as the reference compound. […]

[2] = test system: "late phase" eosinophilia in the BAL; assay: Inhibition of the "late phase" eosinophilia in the BAL 24 hours after allergen challenge in guinea pigs; type: in vivo
Method: Inhibition of the “Late Phase” eosinophilia in the BAL 24 Hours after Allergen Challenge in Guinea Pigs
Male guinea pigs (200-250 g, Dunkin Hartley Shoe) were actively sensitized subcutaneously with ovalbumin (10 μg of ovalbumin+1 mg of Al(OH)3) and boosted 2 weeks later. One week after boosting with ovalbumin, the animals were exposed to an inhalation challenge with ovalbumin (0.5% strength solution) for 20-30 seconds. 24 hours later, the animals were killed by means of an overdose of urethane, exsanguinated and a bronchoalveolar lavage (BAL) was carried out using 2×5 ml of 0.9% strength physiological saline solution.
The lavage fluid was collected and centrifuged at 400 g for 10 minutes, and the pellets were suspended in 1 ml of 0.9% strength physiological saline solution. The eosinophils were counted microscopically in a Neubauer chamber after staining by means of Becton Dickinson test kit No. 5877. This test kit contains Phloxin B as a selective stain for eosinophils. The eosinophils in the BAL was [sic] counted here for each animal and expressed as eosinophils (millions/animal). For each group the mean value and standard deviation were determined. The percentage inhibition of eosinophilia for the group treated with test substance was calculated according to the following formula: (A−B)−(B−C)/(A−C)×100=% inhibition in this formula A eosinophils correspond to the untreated challenge group, B eosinophils to the treated group and C eosinophils to the unchallenged control group.
The animals were treated with a histamine H1 antagonist (azelastine; 0.01 mg/kg p.o.) 2 hours before allergen challenge to avoid death. The administration of the test substances or of the vehicle was carried out 4 hours after allergen challenge.

Chain of recombinant human Cyp B (P23284 34-216): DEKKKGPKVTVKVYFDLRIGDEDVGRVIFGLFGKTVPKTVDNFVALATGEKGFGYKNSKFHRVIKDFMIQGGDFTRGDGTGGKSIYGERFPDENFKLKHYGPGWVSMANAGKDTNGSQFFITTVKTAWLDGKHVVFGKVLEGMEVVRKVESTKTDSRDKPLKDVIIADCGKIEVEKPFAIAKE

Work on `O=C(Nc1ccncc1)C(=O)c1cn(Cc2ccc(F)cc2)c2ccccc12` [Ex. 1, N-(Pyridin-4-yl)-[1-(4-fluorobenzyl)indol-3-yl]glyoxylamide] yielded an inhibition at 0.1 µM ([1]; Conc. 0.1 μM) of 34%, an inhibition at 1 µM ([1]; Conc. 1 μM) of 72% and an inhibition at 10 µM ([1]; Conc. 10 μM) of 95%. The inhibition at 0.1 µM (lymphoproliferation; Conc. 0.1 μM) was 18%, the inhibition at 1 µM (lymphoproliferation; Conc. 1 μM) was 39% and the inhibition at 10 µM (lymphoproliferation; Conc. 10 μM) was 61%. The “Inhibition of PPIase activity” value (recombinant human Cyp B) was 80-100%, the “% Inhibition of the "late phase" eosinophilia 24 h after allergen challenge” value (“% Inhibition” below) ([2]; 5 mg/kg i.p. + 4 h after allergen challenge) was 27.8% and the “% Inhibition” value ([2]; 10 mg/kg i.p. + 4 h after allergen challenge) was 55.4%. The “% Inhibition” value ([2]; 30 mg/kg p.o. + 4 h after allergen challenge) was 56.1%.
